# pEC50: −log10 of the molar value. Read-outs that look alike come from different tables or passages of the source.
# Columns and labels:
# [1] = test system: HCV genotype 1b (Con1) replicon in HUH-7 cells; assay: HCV replicon luciferase reporter assay, genotype 1b; type: cell-based; conditions: Hepatitis C virus, Huh-7, 72 h, HCV genotype 1b replicon luciferase, 3 days incubation, read-out: LE_1b (EC50, range)
# In short: (§1)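 Replicon inhibition for both genotypes was measured as Renilla luciferase signal (EnduRen, 7.5 μM final, 2 h) after 3-day, 37° C exposure of replicon-bearing HUH-7 cells in 4% FCS DMEM, 0.5% DMSO. The 1b construct carries S1179I; the 1a H77 construct carries P1496L and S2204I. Twenty-point, 3-fold dilutions were fitted four-parametrically for EC50, and CC50 was taken from multiplexed Cell Titer-Blue.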
# [2] = test system: HCV genotype 1a (H77 strain) replicon in HUH-7 cells; assay: HCV replicon luciferase reporter assay, genotype 1a; type: cell-based; conditions: Hepatitis C virus, Huh-7, 72 h, HCV genotype 1a replicon luciferase, 3 days incubation, read-out: LE_1a (EC50, range)
# In short: as §1
SMILES,pEC50 [1],pEC50 [2],pEC50 ([1]; GETYPE1B),pEC50 ([2]; GETYPE1A)
"CC[C@@H]1C[C@H](C)CC/C=C\[C@@H]2C[C@@]2(C(=O)NS(=O)(=O)C2(C)CC2)NC(=O)[C@@H]2C[C@@H](Oc3nccc4cc(OC)c(Cl)cc34)CN2C(=O)[C@H]1NC(=O)OC(C)(C)C(F)(F)F [Compound 3222, 1,1,1-trifluoro-2-methylpropan-2-yl((2R,6S,7R,9R,13aS,14aR,16aS,Z)-2-((7-chloro-6-methoxyisoquinolin-1-yl)oxy)-7-ethyl-9-methyl-14a-(((1-methylcyclopropyl)sulfonyl)carbamoyl)-5,16-dioxo-1,2,3,5,6,7,8,9,10,11,13a,14,14a,15,16,16a-hexadecahydrocyclopropa[e]pyrrolo[1,2-a][1,4]diazacyclopentadecin-6-yl)carbamate]",8.30 to 9.00,8.30 to 9.00,,
"CC[C@@H]1C[C@H](C)CC/C=C\[C@@H]2C[C@@]2(C(=O)NS(=O)(=O)C2(C)CC2)NC(=O)[C@@H]2C[C@@H](Oc3nccc4cc(OC)c(Cl)cc34)CN2C(=O)[C@H]1NC(=O)OC(C)(C)C(C)(F)F [Compound 3224, 3,3-difluoro-2-methylbutan-2-yl((2R,6S,7R,9R,13aS,14aR,16aS,Z)-2-((7-chloro-6-methoxyisoquinolin-1-yl)oxy)-7-ethyl-9-methyl-14a-(((1-methylcyclopropyl)sulfonyl)carbamoyl)-5,16-dioxo-1,2,3,5,6,7,8,9,10,11,13a,14,14a,15,16,16a-hexadecahydrocyclopropa[e]pyrrolo[1,2-a][1,4]diazacyclopentadecin-6-yl)carbamate]",8.30 to 9.00,8.30 to 9.00,,
"CC[C@@H]1C[C@H](C)CC/C=C\[C@@H]2C[C@@]2(C(=O)NS(=O)(=O)C2(C)CC2)NC(=O)[C@@H]2C[C@@H](Oc3nccc4cc(OC)c(Cl)cc34)CN2C(=O)[C@H]1NC(=O)OC(C)(C)C(F)F [Compound 3226, 1,1-difluoro-2-methylpropan-2-yl((2R,6S,7R,9R,13aS,14aR,16aS,Z)-2-((7-chloro-6-methoxyisoquinolin-1-yl)oxy)-7-ethyl-9-methyl-14a-(((1-methylcyclopropyl)sulfonyl)carbamoyl)-5,16-dioxo-1,2,3,5,6,7,8,9,10,11,13a,14,14a,15,16,16a-hexadecahydrocyclopropa[e]pyrrolo[1,2-a][1,4]diazacyclopentadecin-6-yl)carbamate]",9.00 to 9.29,8.30 to 9.00,,
"CC[C@@H]1C[C@H](C)CC/C=C\[C@@H]2C[C@@]2(C(=O)NS(=O)(=O)C2CC2)NC(=O)[C@@H]2C[C@H](Oc3ncc(OC)c4ccc(F)cc34)CN2C(=O)[C@@H]1NC(=O)OC(C)(C)C [Compound 4001, tert-butyl tert-butyl (2R,6S,7R,9R,13aS,14aR,16aS,Z)-14a-(cyclopropylsulfonylcarbamoyl)-7-ethyl-2-(7-fluoro-4-methoxyisoquinolin-1-yloxy)-9-methyl-5,16-dioxo-1,2,3,5,6,7,8,9,10,11,13a,14,14a,15,16,16a-hexadecahydrocyclopropa[e]pyrrolo[1,2-a][1,4]diazacyclopentadecin-6-ylcarbamate]",> 8.26,> 8.26,,
"CC[C@@H]1C[C@H](C)CC/C=C\[C@@H]2C[C@@]2(C(=O)NS(=O)(=O)C2CC2)NC(=O)[C@@H]2C[C@@H](Oc3ncc(OC)c4ccc(F)cc34)CN2C(=O)[C@H]1NC(=O)OC(C)(C)C(F)(F)F [Compound 4002, 1,1,1-trifluoro-2-methylpropan-2-yl (2R,6S,7R,9R,13aS,14aR,16aS,Z)-14a-(cyclopropylsulfonylcarbamoyl)-7-ethyl-2-(7-fluoro-4-methoxyisoquinolin-1-yloxy)-9-methyl-5,16-dioxo-1,2,3,5,6,7,8,9,10,11,13a,14,14a,15,16,16a-hexadecahydrocyclopropa[e]pyrrolo[1,2-a][1,4]diazacyclopentadecin-6-ylcarbamate]",> 8.26,> 8.26,,
"CC[C@@H]1C[C@H](C)CC/C=C\[C@@H]2C[C@@]2(C(=O)NS(=O)(=O)C2CC2)NC(=O)[C@@H]2C[C@@H](Oc3nccc4cc(OC)c(F)cc34)CN2C(=O)[C@H]1NC(=O)OC(C)(C)C [Compound 4003, tert-butyl (2R,6S,7R,9R,13aS,14aR,16aS,Z)-14a-(cyclopropylsulfonylcarbamoyl)-7-ethyl-2-(7-fluoro-6-methoxyisoquinolin-1-yloxy)-9-methyl-5,16-dioxo-1,2,3,5,6,7,8,9,10,11,13a,14,14a,15,16,16a-hexadecahydrocyclopropa[e]pyrrolo[1,2-a][1,4]diazacyclopentadecin-6-ylcarbamate]",> 8.26,> 8.26,,
"CC[C@@H]1C[C@H](C)CC/C=C\[C@@H]2C[C@@]2(C(=O)NS(=O)(=O)C2CC2)NC(=O)[C@@H]2C[C@@H](Oc3nccc4cc(OC)c(F)cc34)CN2C(=O)[C@H]1NC(=O)OC(C)(C)C(F)(F)F [Compound 4004, 1,1,1-trifluoro-2-methylpropan-2-yl (2R,6S,7R,9R,13aS,14aR,16aS,Z)-14a-(cyclopropylsulfonylcarbamoyl)-7-ethyl-2-(7-fluoro-6-methoxyisoquinolin-1-yloxy)-9-methyl-5,16-dioxo-1,2,3,5,6,7,8,9,10,11,13a,14,14a,15,16,16a-hexadecahydrocyclopropa[e]pyrrolo[1,2-a][1,4]diazacyclopentadecin-6-ylcarbamate]",> 8.26,> 8.26,,
"CC[C@@H]1C[C@H](C)CC/C=C\[C@@H]2C[C@@]2(C(=O)NS(=O)(=O)C2CC2)NC(=O)[C@@H]2C[C@@H](Oc3nccc4cc(OC)ccc34)CN2C(=O)[C@H]1NC(=O)OC(C)(C)C [Compound 4005, tert-butyl (2R,6S,7R,9R,13aS,14aR,16aS,Z)-14a-(cyclopropylsulfonylcarbamoyl)-7-ethyl-2-(6-methoxyisoquinolin-1-yloxy)-9-methyl-5,16-dioxo-1,2,3,5,6,7,8,9,10,11,13a,14,14a,15,16,16a-hexadecahydrocyclopropa[e]pyrrolo[1,2-a][1,4]diazacyclopentadecin-6-ylcarbamate]",> 8.26,> 8.26,,
"CC[C@@H]1C[C@H](C)CC/C=C\[C@@H]2C[C@@]2(C(=O)NS(=O)(=O)C2CC2)NC(=O)[C@@H]2C[C@@H](Oc3nccc4cc(OC)ccc34)CN2C(=O)[C@H]1NC(=O)OC(C)(C)C(F)(F)F [Compound 4006, 1,1,1-trifluoro-2-methylpropan-2-yl (2R,6S,7R,9R,13aS,14aR,16aS,Z)-14a-(cyclopropylsulfonylcarbamoyl)-7-ethyl-2-(6-methoxyisoquinolin-1-yloxy)-9-methyl-5,16-dioxo-1,2,3,5,6,7,8,9,10,11,13a,14,14a,15,16,16a-hexadecahydrocyclopropa[e]pyrrolo[1,2-a][1,4]diazacyclopentadecin-6-ylcarbamate]",> 8.26,> 8.26,,
C=C1C=Cc2c(O[C@@H]3C[C@H]4C(=O)N[C@]5(C(=O)NS(=O)(=O)C6CC6)C[C@H]5/C=C\CC[C@@H](C)C[C@@H](CC)[C@H](NC(=O)OC(C)(C)C)C(=O)N4C3)ncc(OC)c2C1 [Compound 4007],> 8.26,> 8.26,,
COc1ccc2c(O[C@@H]3C[C@H]4C(=O)N[C@]5(C(=O)NS(=O)(=O)C6(C)CC6)C[C@H]5/C=C\CC[C@@H](C)C[C@@H](C)[C@H](NC(=O)OC(C)(C)C(F)(F)F)C(=O)N4C3)ncc(N3CCN(C)CC3)c2c1 [Compound 4013],,,> 8.26,> 8.26
COc1ccc2c(O[C@@H]3C[C@H]4C(=O)N[C@]5(C(=O)NS(=O)(=O)C6(F)CC6)C[C@H]5/C=C\CC[C@@H](C)C[C@@H](C)[C@H](NC(=O)C(C)(C)C)C(=O)N4C3)nccc2c1 [Compound 4015],> 8.26,> 8.26,,
COc1ccc2c(O[C@@H]3C[C@H]4C(=O)N[C@]5(C(=O)NS(=O)(=O)C6(F)CC6)C[C@H]5/C=C\CC[C@@H](C)C[C@@H](C)[C@H](NC(=O)OC(C)C)C(=O)N4C3)nccc2c1 [Compound 4016],> 8.26,> 8.26,,
CC(C)Oc1cnc(O[C@@H]2C[C@H]3C(=O)N[C@]4(C(=O)NS(=O)(=O)C5CC5)C[C@H]4/C=C\CC[C@@H](C)C[C@@H](C)[C@H](NC(=O)OC(C)(C)C(F)(F)F)C(=O)N3C2)c2cccc(Cl)c12 [Compound 4017],> 8.26,> 8.26,,
COc1ccc2c(O[C@@H]3C[C@H]4C(=O)N[C@]5(C(=O)NS(=O)(=O)C6(F)CC6)C[C@H]5/C=C\CC[C@@H](C)C[C@@H](C)[C@H](NC(=O)OCC(C)C)C(=O)N4C3)nccc2c1 [Compound 4018],> 8.26,> 8.26,,
COc1ccc2c(O[C@@H]3C[C@H]4C(=O)N[C@]5(C(=O)NS(=O)(=O)C6(F)CC6)C[C@H]5/C=C\CC[C@@H](C)C[C@@H](C)[C@H](NC(=O)OC5CCCC5)C(=O)N4C3)nccc2c1 [Compound 4019],> 8.26,> 8.26,,
COc1ccc2c(O[C@@H]3C[C@H]4C(=O)N[C@]5(C(=O)NS(=O)(=O)C6(F)CC6)C[C@H]5/C=C\CC[C@@H](C)C[C@@H](C)[C@H](NC(=O)O[C@H](C)C(F)(F)F)C(=O)N4C3)nccc2c1 [Compound 4020],> 8.26,> 8.26,,
COc1ccc2c(O[C@@H]3C[C@H]4C(=O)N[C@]5(C(=O)NS(=O)(=O)C6(F)CC6)C[C@H]5/C=C\CC[C@@H](C)C[C@@H](C)[C@H](NC(=O)OCC(C)(C)C)C(=O)N4C3)nccc2c1 [Compound 4022],> 8.26,> 8.26,,
